Measured values reported in PubChem BioAssay (NCI).
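1) Cells in 96-well plates. 2) Compound, 48 h, 5 concentrations. 3) Linear interpolation between surrounding doses. 4) Unreached endpoint = highest concentration. GI50 is the concentration that inhibits growth by half. At the TGI there is no net growth.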

Experiments:
Test in all cases: NCI tumour cell line growth inhibition, 48 h
HS 578T breast = tested on: HS 578T breast
RXF-631 renal = tested on: RXF-631 renal
DLD-1 colon = tested on: DLD-1 colon
LXFL 529 NSCLC = tested on: LXFL 529 NSCLC
DMS 273 small cell lung = tested on: DMS 273 small cell lung
HOP-18 NSCLC = tested on: HOP-18 NSCLC
SNB-78 CNS = tested on: SNB-78 CNS
XF 498 CNS = tested on: XF 498 CNS
MDA-N = tested on: MDA-N

C=CC(=O)Nc1cc(Nc2ncc(C(=O)OC(C)C)c(-c3cn(C)c4ccccc34)n2)c(OC)cc1N(C)CCN(C)C
GI50 (HS 578T breast): 6.43 µM
TGI (HS 578T breast): 21.5 µM

Cc1ccc(S(=O)(=O)OC[C@@H]2CO2)cc1
TGI (RXF-631 renal): > 100 µM
TGI (DLD-1 colon): > 100 µM
TGI (LXFL 529 NSCLC): > 100 µM
TGI (DMS 273 small cell lung): > 100 µM
TGI (HOP-18 NSCLC): > 100 µM
TGI (SNB-78 CNS): > 100 µM

NC1=NCCC1(c1ccccc1)c1ccccn1 (stereo not given)
TGI (LXFL 529 NSCLC): > 100 µM
TGI (DMS 273 small cell lung): > 100 µM
TGI (HOP-18 NSCLC): > 100 µM
TGI (SNB-78 CNS): > 100 µM
TGI (XF 498 CNS): > 100 µM

COC(=O)c1ccccc1NC(=O)C(=O)Cc1nc2c3c(ccc2[nH]c1=O)C(=O)c1ccccc1C3=O
TGI (RXF-631 renal): > 100 µM
TGI (DLD-1 colon): > 100 µM
TGI (LXFL 529 NSCLC): > 100 µM
TGI (DMS 273 small cell lung): 58.1 µM
TGI (HOP-18 NSCLC): > 100 µM
TGI (SNB-78 CNS): > 100 µM
TGI (XF 498 CNS): 91.7 µM

COc1cc2ccnc([C@@H](OC(=O)c3ccccc3)c3ccc(OC)c(OC)c3OC)c2cc1OC
TGI (RXF-631 renal): > 100 µM
TGI (DLD-1 colon): 80.2 µM
TGI (LXFL 529 NSCLC): > 100 µM
TGI (HOP-18 NSCLC): > 100 µM
TGI (SNB-78 CNS): > 100 µM

O=C(CCc1nc(=S)[nH][nH]1)Nc1ccc(Cl)c(Cl)c1
TGI (RXF-631 renal): > 100 µM
TGI (DLD-1 colon): > 100 µM
TGI (LXFL 529 NSCLC): > 100 µM
TGI (DMS 273 small cell lung): > 100 µM
TGI (HOP-18 NSCLC): > 100 µM
TGI (SNB-78 CNS): > 100 µM
TGI (XF 498 CNS): > 100 µM

Nc1nc(-n2c(-c3ccccc3)nc3c(Br)cc(Br)cc3c2=O)nnc1-c1cccc(Cl)c1Cl
GI50 (HS 578T breast): 5.02 µM
TGI (HS 578T breast): 41 µM

O=C(CCNC12CC3CC(CC(C3)C1)C2)c1ccccc1
TGI (MDA-N): 30.5 µM

Cc1nc2c(ccc3ncccc32)[nH]1
TGI (DLD-1 colon): > 100 µM
TGI (LXFL 529 NSCLC): > 100 µM
TGI (DMS 273 small cell lung): > 100 µM
TGI (HOP-18 NSCLC): > 100 µM

COc1cc2c(c(OC)c1OC)-c1ccc(NNC(N)=S)c(=O)cc1[C@@H](NC(C)=O)CC2
TGI (HS 578T breast): > 100 µM

Cc1c(C(=O)C/C(=N/NC(=O)c2ccccc2O)C(=O)Nc2ccccc2C(C)C)[n+](=O)c2ccccc2n1[O-]
TGI (DLD-1 colon): > 100 µM
TGI (LXFL 529 NSCLC): > 100 µM
TGI (DMS 273 small cell lung): > 100 µM
TGI (HOP-18 NSCLC): > 100 µM
TGI (SNB-78 CNS): > 100 µM
TGI (XF 498 CNS): > 100 µM

OCCN(CCO)c1ncnc2c1ncn2Cc1ccc(CCl)cc1
GI50 (HS 578T breast): 16 µM
TGI (HS 578T breast): 36.9 µM

COc1ccc(CC2c3cc4c(cc3CCN2C)OCO4)c(C=O)c1OC (stereo not given)
TGI (MDA-N): > 100 µM
TGI (HS 578T breast): > 100 µM

CCCCCCCCCCCC(=O)OCCOCCOCCOCCOCCOCc1ccccc1
TGI (DLD-1 colon): > 100 µM
TGI (LXFL 529 NSCLC): > 100 µM
TGI (DMS 273 small cell lung): > 100 µM
TGI (HOP-18 NSCLC): > 100 µM
TGI (SNB-78 CNS): > 100 µM

CC1(C)C(=O)/C=C\C(=O)C(C)(C)C2=CC=C(O2)C(C)(C)C(=O)/C=C\C(=O)C(C)(C)C2=CC=C1O2
TGI (LXFL 529 NSCLC): > 100 µM
TGI (DMS 273 small cell lung): > 100 µM
TGI (HOP-18 NSCLC): > 100 µM
TGI (SNB-78 CNS): > 100 µM
TGI (XF 498 CNS): > 100 µM

CCOC(=O)C(C)(C)Oc1ccc2c(-c3ccccc3)cc(=O)oc2c1
TGI (DLD-1 colon): > 100 µM
TGI (LXFL 529 NSCLC): 94.8 µM
TGI (DMS 273 small cell lung): > 100 µM
TGI (XF 498 CNS): 47.9 µM

CCOC(=O)CCC1(C(=O)OCC)CCCCC1=O (stereo not given)
TGI (DLD-1 colon): > 100 µM
TGI (LXFL 529 NSCLC): > 100 µM
TGI (DMS 273 small cell lung): > 100 µM
TGI (HOP-18 NSCLC): > 100 µM
TGI (SNB-78 CNS): > 100 µM
TGI (XF 498 CNS): > 100 µM

Fc1ccc(NC(=S)SCc2ccc3c(c2)OCO3)cc1F
TGI (MDA-N): 34.7 µM
TGI (HS 578T breast): 88.7 µM

OC1CSSC1Cn1cnc2c(Nc3ccc(OCc4cccc(F)c4)c(Cl)c3)ncnc21 (stereo not given)
GI50 (HS 578T breast): 5.28 µM
TGI (HS 578T breast): 15 µM

CCCC1C(=O)CCc2c(OC)ccc(OC)c21 (stereo not given)
TGI (DLD-1 colon): > 100 µM
TGI (LXFL 529 NSCLC): > 100 µM
TGI (DMS 273 small cell lung): > 100 µM
TGI (HOP-18 NSCLC): > 100 µM
TGI (SNB-78 CNS): > 100 µM
TGI (XF 498 CNS): > 100 µM

Cc1ccc(NC(=O)Nc2ccc(-c3cccnc3)cc2N2CCC(CO)CC2)cc1
GI50 (HS 578T breast): 1.7 µM
TGI (HS 578T breast): 6.4 µM

CC1CCc2nc[nH]c(=O)c21 (stereo not given)
GI50 (HS 578T breast): > 100 µM
TGI (HS 578T breast): > 100 µM

COc1cccc(C2c3cc4c(cc3OC(C)(N3CCCC3)C2C)OCO4)c1O (stereo not given)
TGI (MDA-N): 5.81 µM
TGI (HS 578T breast): 5.59 µM

CN(C)N=Nc1ccc(C(N)=O)cc1
TGI (DLD-1 colon): > 100 µM
TGI (LXFL 529 NSCLC): > 100 µM
TGI (DMS 273 small cell lung): > 100 µM
TGI (HOP-18 NSCLC): > 100 µM
TGI (SNB-78 CNS): > 100 µM
TGI (XF 498 CNS): > 100 µM

Cc1ccc(CN2CCC(C(=O)Nc3ccc(-c4cc5ccccc5[nH]4)cc3)CC2)o1
GI50 (HS 578T breast): 26.3 µM
TGI (HS 578T breast): > 100 µM

CN(C)C(=S)N=C(Nc1ccccc1)Nc1ccccc1
TGI (DMS 273 small cell lung): > 100 µM
TGI (SNB-78 CNS): > 100 µM

CCOC1Oc2ccccc2C(=O)/C1=C/Nc1ccc(C(C)=O)cc1 (stereo not given)
GI50 (HS 578T breast): 17.9 µM
TGI (HS 578T breast): 52 µM

OCC1=CC(NC2CC(CO)C(O)C(O)C2O)C(O)C(O)C1O (stereo not given)
TGI (DLD-1 colon): > 100 µM
TGI (DMS 273 small cell lung): > 100 µM
TGI (HOP-18 NSCLC): > 100 µM
TGI (XF 498 CNS): > 100 µM

COC(=O)/C=C1\S/C(=N\NC(=O)c2cc3ccc2/C=C\c2ccc(cc2)/C=C\3)N(c2ccccc2)C1=O
GI50 (HS 578T breast): 3.49 µM
TGI (HS 578T breast): > 100 µM

Cn1cc(C2=C(c3c4n(c5ccccc35)CCCCC4)C(=O)NC2=O)c2ccccc21
GI50 (HS 578T breast): 1.7 µM
TGI (HS 578T breast): 19.8 µM

C=C(C)C(OC)C(O)CC1(C)CC(O)CC(C)(C2CCC3OC(C4(C)CCC(Br)C(C)(C)O4)CCC3(C)O2)O1 (stereo not given)
GI50 (HS 578T breast): 23.9 µM
TGI (HS 578T breast): 52.9 µM

COc1cc2cc(OC)c3cc4c(cc3c2c(OC)c1OC)OCO4
TGI (RXF-631 renal): > 100 µM
TGI (DLD-1 colon): 51.5 µM
TGI (LXFL 529 NSCLC): > 100 µM
TGI (DMS 273 small cell lung): 35.6 µM
TGI (HOP-18 NSCLC): > 100 µM
TGI (SNB-78 CNS): > 100 µM

C1=C2/CC[C@H](Sc3ccccc3)C2C2(CCCCC/1)OCCO2 (stereo not given in full)
TGI (DLD-1 colon): > 100 µM
TGI (DMS 273 small cell lung): > 100 µM
TGI (HOP-18 NSCLC): > 100 µM
TGI (SNB-78 CNS): > 100 µM
TGI (XF 498 CNS): 58.6 µM

CCN(CC)CCSc1c2ccccc2nc2cc(NCC(=O)Nc3ccccc3-c3ccccc3NC(=O)CNc3ccc4c(SCCN(CC)CC)c5ccccc5nc4c3)ccc12
TGI (RXF-631 renal): > 100 µM
TGI (DLD-1 colon): > 100 µM
TGI (LXFL 529 NSCLC): > 100 µM
TGI (DMS 273 small cell lung): > 58.3 µM
TGI (HOP-18 NSCLC): > 100 µM
TGI (XF 498 CNS): > 100 µM
